Measurements: patent US10626093B2, “Polymorphic form of crystalline rosuvastatin calcium and novel processes for crystalline as well as amorphous rosuvastatin calcium” (MOREPEN LABORATORIES LIMITED, priority 2016, dated 2020)

How the values were obtained:
[1] = Stability study of Rosuvastatin calcium form M2 (plant batches, RT); assay type: physicochemical
Procedure: According to still another embodiment of current invention, The form M2 is stable at 30° C. with 65% RH for 24 months & 40° C. with 75% RH for 6 months for all ICH/EP/USP grade.

[2] = Stability study of Rosuvastatin calcium form M (30° C./65% RH and 40° C./75% RH); assay type: physicochemical
Procedure: According to one more aspect of current invention, the form M is stable at 30° C. with 65% RH for 48 months & 40° C. with 75% RH for 6 months for all ICH/EP/USP grade.

[3] = 40° C. with 75% RH for 6 months

7-[4-(4-flurophenyl)-6-isopropyl-2-(N-methyl-N-methyl sulfonyl amino)-pyrimidin-5-yl]-(3R,5S)-dihydroxy-hept-6-enoic acid Calcium salt [form M2]
Stability ([1]; 30° C. with 65% RH for 24 months): stable | Stability [1, 3]: stable

7-[4-(4-flurophenyl)-6-isopropyl-2-(N-methyl-N-methylsulfonylamino)-pyrimidin-5-yl]-(3R,5S)-dihydroxy-hept-6-enoic acid Calcium salt [form M]
Stability ([2]; 30° C. with 65% RH for 48 months): stable | Assay (OAB) ([2]; 30° C./65% RH, 3 months): 99.58 % w/w | Description ([2]; 30° C./65% RH, 3 months): A white | Related Substances (HPLC) Individual Unknown Imp. ([2]; 30° C./65% RH, 3 months): 0.02% | Related Substances (HPLC) Lactone ([2]; 30° C./65% RH, 3 months): 0.05% | Related Substances (HPLC) RT-07 ([2]; 30° C./65% RH, 3 months): 0.05% | Related Substances (HPLC) Total Imp. ([2]; 30° C./65% RH, 3 months): 0.16% | Water ([2]; 30° C./65% RH, 3 months): 5.30% | Assay (OAB) ([2]; 30° C./65% RH, 6 months): 99.54 % w/w | Description ([2]; 30° C./65% RH, 6 months): A white | Related Substances (HPLC) Individual Unknown Imp. ([2]; 30° C./65% RH, 6 months): 0.04% | Related Substances (HPLC) Lactone ([2]; 30° C./65% RH, 6 months): 0.04% | Related Substances (HPLC) RT-07 ([2]; 30° C./65% RH, 6 months): 0.05% | Related Substances (HPLC) Total Imp. ([2]; 30° C./65% RH, 6 months): 0.14% | Water ([2]; 30° C./65% RH, 6 months): 5.43% | Assay (OAB) ([2]; 30° C./65% RH, 9 months): 99.33 % w/w | Description ([2]; 30° C./65% RH, 9 months): A white | Related Substances (HPLC) Individual Unknown Imp. ([2]; 30° C./65% RH, 9 months): 0.02% | Related Substances (HPLC) Lactone ([2]; 30° C./65% RH, 9 months): 0.04% | Related Substances (HPLC) RT-07 ([2]; 30° C./65% RH, 9 months): 0.05% | Related Substances (HPLC) Total Imp. ([2]; 30° C./65% RH, 9 months): 0.14% | Water ([2]; 30° C./65% RH, 9 months): 5.44% | Assay (OAB) ([2]; 30° C./65% RH, 12 months): 99.55 % w/w | Description ([2]; 30° C./65% RH, 12 months): A white | Related Substances (HPLC) Anti-Isomer ([2]; 30° C./65% RH, 12 months): 0.04% | Related Substances (HPLC) Individual Unknown Imp. ([2]; 30° C./65% RH, 12 months): 0.02% | Related Substances (HPLC) Lactone ([2]; 30° C./65% RH, 12 months): 0.05% | Related Substances (HPLC) RT-07 ([2]; 30° C./65% RH, 12 months): 0.06% | Related Substances (HPLC) Total Imp. ([2]; 30° C./65% RH, 12 months): 0.17% | Water ([2]; 30° C./65% RH, 12 months): 5.55% | Assay (OAB) ([2]; 30° C./65% RH, 18 months): 99.70 % w/w | Description ([2]; 30° C./65% RH, 18 months): A white | Related Substances (HPLC) Anti-Isomer ([2]; 30° C./65% RH, 18 months): 0.03% | Related Substances (HPLC) Individual Unknown Imp. ([2]; 30° C./65% RH, 18 months): 0.02% | Related Substances (HPLC) Lactone ([2]; 30° C./65% RH, 18 months): 0.04% | Related Substances (HPLC) RT-07 ([2]; 30° C./65% RH, 18 months): 0.05% | Related Substances (HPLC) Total Imp. ([2]; 30° C./65% RH, 18 months): 0.16% | Water ([2]; 30° C./65% RH, 18 months): 5.57% | Assay (OAB) ([2]; 30° C./65% RH, 24 months): 99.81 % w/w | Description ([2]; 30° C./65% RH, 24 months): A white | Related Substances (HPLC) Anti-Isomer ([2]; 30° C./65% RH, 24 months): 0.04% | Related Substances (HPLC) Individual Unknown Imp. ([2]; 30° C./65% RH, 24 months): 0.02% | Related Substances (HPLC) Lactone ([2]; 30° C./65% RH, 24 months): 0.04% | Related Substances (HPLC) RT-07 ([2]; 30° C./65% RH, 24 months): 0.05% | Related Substances (HPLC) Total Imp. ([2]; 30° C./65% RH, 24 months): 0.15% | Water ([2]; 30° C./65% RH, 24 months): 5.72% | Assay (OAB) ([2]; 30° C./65% RH, 36 months): 99.75 % w/w | Description ([2]; 30° C./65% RH, 36 months): A white | Related Substances (HPLC) Anti-Isomer ([2]; 30° C./65% RH, 36 months): 0.04% | Related Substances (HPLC) Individual Unknown Imp. ([2]; 30° C./65% RH, 36 months): 0.02% | Related Substances (HPLC) Lactone ([2]; 30° C./65% RH, 36 months): 0.04% | Related Substances (HPLC) RT-07 ([2]; 30° C./65% RH, 36 months): 0.05% | Related Substances (HPLC) Total Imp. ([2]; 30° C./65% RH, 36 months): 0.16% | Water ([2]; 30° C./65% RH, 36 months): 5.74% | Assay (OAB) ([2]; 30° C./65% RH, 48 months): 99.66 % w/w | Description ([2]; 30° C./65% RH, 48 months): A white | Related Substances (HPLC) Anti-Isomer ([2]; 30° C./65% RH, 48 months): 0.05% | Related Substances (HPLC) Individual Unknown Imp. ([2]; 30° C./65% RH, 48 months): 0.02% | Related Substances (HPLC) Lactone ([2]; 30° C./65% RH, 48 months): 0.04% | Related Substances (HPLC) RT-07 ([2]; 30° C./65% RH, 48 months): 0.05% | Related Substances (HPLC) Total Imp. ([2]; 30° C./65% RH, 48 months): 0.16% | Water ([2]; 30° C./65% RH, 48 months): 5.90% | Stability [2, 3]: stable | Assay (OAB) ([2]; 40° C./75% RH, 1 month): 100.03 % w/w | Description ([2]; 40° C./75% RH, 1 month): A white | Related Substances (HPLC) Individual Unknown Imp. ([2]; 40° C./75% RH, 1 month): 0.03% | Related Substances (HPLC) Lactone ([2]; 40° C./75% RH, 1 month): 0.04% | Related Substances (HPLC) RT-07 ([2]; 40° C./75% RH, 1 month): 0.05% | Related Substances (HPLC) Total Imp. ([2]; 40° C./75% RH, 1 month): 0.14% | Water ([2]; 40° C./75% RH, 1 month): 5.65% | Assay (OAB) ([2]; 40° C./75% RH, 2 months): 99.93 % w/w | Description ([2]; 40° C./75% RH, 2 months): A white | Related Substances (HPLC) Individual Unknown Imp. ([2]; 40° C./75% RH, 2 months): 0.02% | Related Substances (HPLC) Lactone ([2]; 40° C./75% RH, 2 months): 0.04% | Related Substances (HPLC) RT-07 ([2]; 40° C./75% RH, 2 months): 0.05% | Related Substances (HPLC) Total Imp. ([2]; 40° C./75% RH, 2 months): 0.15% | Water ([2]; 40° C./75% RH, 2 months): 5.59% | Assay (OAB) ([2]; 40° C./75% RH, 3 months): 100.03 % w/w | Description ([2]; 40° C./75% RH, 3 months): A white | Related Substances (HPLC) Individual Unknown Imp. ([2]; 40° C./75% RH, 3 months): 0.02% | Related Substances (HPLC) Lactone ([2]; 40° C./75% RH, 3 months): 0.04% | Related Substances (HPLC) RT-07 ([2]; 40° C./75% RH, 3 months): 0.05% | Related Substances (HPLC) Total Imp. ([2]; 40° C./75% RH, 3 months): 0.13% | Water ([2]; 40° C./75% RH, 3 months): 5.66% | Assay (OAB) ([2]; 40° C./75% RH, 6 months): 99.59 % w/w | Description ([2]; 40° C./75% RH, 6 months): A white | Related Substances (HPLC) Individual Unknown Imp. ([2]; 40° C./75% RH, 6 months): 0.02% | Related Substances (HPLC) Lactone ([2]; 40° C./75% RH, 6 months): 0.04% | Related Substances (HPLC) RT-07 ([2]; 40° C./75% RH, 6 months): 0.04% | Related Substances (HPLC) Total Imp. ([2]; 40° C./75% RH, 6 months): 0.12% | Water ([2]; 40° C./75% RH, 6 months): 5.63% | Assay (OAB) ([2]; Initial): 100.08 % w/w | Description ([2]; Initial): A white | Related Substances (HPLC) Individual Unknown Imp. ([2]; Initial): 0.02% | Related Substances (HPLC) Lactone ([2]; Initial): 0.02% | Related Substances (HPLC) RT-07 ([2]; Initial): 0.05% | Related Substances (HPLC) Total Imp. ([2]; Initial): 0.13% | Water ([2]; Initial): 5.06%
